Results: patent US7041665B2, “Benzoxazinone derivatives, their preparation and use as medicaments” (Laboratories del Dr. Esteve, S.A., priority 2002, dated 2006)
Where a name gives a salt, the structure may show the parent alone.

Experiments:
male Wistar rats = test: Nocturnal ingestion test; assay type: in vivo, rat; conditions: intra-peritoneal, compared to control group
Experimental: Measurement of the Intake in Animal Models
The animals employed were male Wistar rats (200–270 g) supplied by Harlan, S. A. The acclimatization period in our stable before being used in the experimental trials was at least 5 days. In this time the animals were stabled in groups of 5 in translucid cages, with water and food ad libitum. The animals were acclimatized to individual stabling at least 24 hours before conducting the experiment.
The test is carried out in the animal's cage in order to minimize the stress implied in a change of cage, which could affect the intake. Water and food are available at all times ad libitum. Immediately before turning out the lights in the room the animals are weighed and randomly assigned to a treatment group (vehicle or product under study). Immediately after the administration the rats are returned to their cages, where a known amount of food had been placed. The following morning the amount of food remaining in each cage was weighed, and the animals were again weighed.
References: Ants Kask et al., Journal of Pharmacology, 414 (2001) 215–224; Andrew V. Turnbull et al., Diabetes, Vol. 51, August 2002
Effect of Some Compounds of the Invention on Nocturnal Ingestion in Male Wistar Rats (Intra-Peritoneal Administration)

Neuropeptide Y5 = target: T1, Neuropeptide Y5 (Rattus norvegicus, UniProt Q63634); test: Binding to Neuropeptide Y5, [125I]-PYY(3-36), BIBP 3226 sat., rat cortex membranes; conditions: radioligand [125I]-PYY3-36, 1 μM BIBP 3226 to saturate Y1, 25° C., 120 minutes
T1 construct: their brains are rapidly removed and the cortex is dissected; from tissue; host or cells: rat brain cortex membranes (male Wistar rats)
T1 sequence (Q63634 1-445): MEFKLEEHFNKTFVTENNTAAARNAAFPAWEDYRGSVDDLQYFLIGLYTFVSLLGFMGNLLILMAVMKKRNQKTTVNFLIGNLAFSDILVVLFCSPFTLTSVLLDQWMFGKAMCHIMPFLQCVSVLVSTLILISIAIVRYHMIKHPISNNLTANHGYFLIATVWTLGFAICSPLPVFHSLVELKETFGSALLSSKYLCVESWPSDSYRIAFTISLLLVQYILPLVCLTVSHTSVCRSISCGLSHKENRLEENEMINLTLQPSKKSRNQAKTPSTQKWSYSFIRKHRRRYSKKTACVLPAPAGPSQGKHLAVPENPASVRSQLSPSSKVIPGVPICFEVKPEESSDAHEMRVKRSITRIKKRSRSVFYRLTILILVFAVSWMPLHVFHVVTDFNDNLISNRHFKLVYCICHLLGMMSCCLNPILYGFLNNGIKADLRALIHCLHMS
Experimental: Binding to Neuropeptide Y5
(§1) Male Wistar rats are sacrificed by decapitation, their brains are rapidly removed and the cortex is dissected. Homogenization is performed in cold conditions in the buffer: 120 mM NaCl, 4.7 mM KCl, 2.2 mM CaCl2, 1.2 mM KH2PO4, 1.2 mM MgSO4, 25 mM NaHCO3, 5.5 mM glucose, pH 7.4, by means of a Ultra-Turrax homogenizer for 15 seconds at 13,500 rpm. The ratio between fresh tissue weight and buffer volume is of twenty times. The membrane is centrifuged for 10 min at 48,000 g. The supernatant is discarded and the pellet is washed, resuspended and recentrifuged three more times. The final membrane resuspension is performed in the buffer: 120 mM NaCl, 4.7 mM KCl, 2.2 mM CaCl2, 1.2 mM KH2PO4, 1.2 mM MgSO4, 25 mM NaHCO3, 5.5 mM glucose, 0.1% BSA, 0.05% bacitracin, pH 7.4, at a ratio of 20 ml/g fresh tissue. […] Incubation volume: 500 μl. […] The filters are cold-washed three times with two milliliters of the same buffer used in homogenization. […] Non-specific binding is determined in the presence of 1 μM of pNPY (porcin Neuropeptide Y). The assays are performed in triplicate.

Neuropeptide Y2 = target: T2, Neuropeptide Y2 (Rattus norvegicus, UniProt Q9ERC0); test: Binding to Neuropeptide Y2, [125I]-PYY(3-36), rat hypoccampus membranes; conditions: radioligand [125I]-PYY3-36, 25° C., 150 minutes
T2 construct: their brains are rapidly removed and the hypoccampus is dissected; from tissue; host or cells: rat hippocampus membranes (male Wistar rats)
T2 sequence (Q9ERC0 1-381): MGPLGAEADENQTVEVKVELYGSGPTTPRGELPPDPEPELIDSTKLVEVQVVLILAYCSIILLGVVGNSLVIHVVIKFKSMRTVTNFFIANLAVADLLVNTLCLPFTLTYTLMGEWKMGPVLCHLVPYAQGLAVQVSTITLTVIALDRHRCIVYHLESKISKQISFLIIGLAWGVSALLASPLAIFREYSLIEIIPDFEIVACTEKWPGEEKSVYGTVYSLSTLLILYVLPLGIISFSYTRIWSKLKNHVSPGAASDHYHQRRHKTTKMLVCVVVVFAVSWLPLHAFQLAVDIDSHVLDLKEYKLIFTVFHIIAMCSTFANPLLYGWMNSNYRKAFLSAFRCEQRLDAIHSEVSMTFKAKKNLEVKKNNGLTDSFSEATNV
Experimental: Binding to Neuropeptide Y2
as §1, with “the hypoccampus” for “the cortex”, “of ten” for “of twenty”, “recentrifuged two” for “recentrifuged three”, “times.” for “times. The final membrane resuspension is performed in the buffer: 120 mM NaCl, 4.7 mM KCl, 2.2 mM CaCl2, 1.2 mM KH2PO4, 1.2 mM MgSO4, 25 mM NaHCO3, 5.5 mM glucose, 0.1% BSA, 0.05% bacitracin, pH 7.4, at a ratio of 20 ml/g fresh tissue.”, “with three” for “with two”

## 1-{1-[N-(9-oxo-9H-fluoren-3-yl)aminocarbonylmethyl]-4-(piperidinyl)}-8-methyl-1,4-dihydro-2H-3,1-benzoxazin-2-one hydrochloride [Example 35]
Male Wistar rats; 20 mg/kg
  Effect on nocturnal ingestion: body weight of the animals: reduces body
  Effect on nocturnal ingestion: food intake: Reduces food intake

## O=C(CN1CCC(N2C(=O)OCc3ccccc32)CC1)Nc1ccc2c(c1)CCCC2=O (as salt: HCl) [Example 6, 1-{1-[N-(1-oxo-1,2,3,4-tetrahydronaphthalen-6-yl)aminocarbonylmethyl]-4-(piperidinyl)}-1,4-dihydro-2H-3,1-benzoxazin-2-one hydrochloride]
other
  melting point: 260 to 264 °C

## O=C(CN1CCC(N2C(=O)OCc3ccccc32)CC1)Nc1ccc2c(c1)-c1ccccc1C2=O (as salt: HCl) [Example 3, 1-{1-[N-(9-oxo-9H-fluoren-3-yl)aminocarbonylmethyl]-4-(piperidinyl)}-1,4-dihydro-2H-3,1-benzoxazin-2-one hydrochloride]
other
  melting point: > 275 °C

## Cc1ccc2c(c1)COC(=O)N2C1CCN(CC(=O)Nc2ccc3c(c2)-c2ccccc2C3=O)CC1 [Example 20, 1-{1-[N-(9-oxo-9H-fluoren-3-yl)aminocarbonylmethyl]-4-(piperidinyl)}-6-methyl-1,4-dihydro-2 H-3,1-benzoxazin-2-one hydrochloride]
Neuropeptide Y5
  Ki: 0.87 nM
Male Wistar rats; 40 mg/kg
  Effect on nocturnal ingestion: body weight of the animals: reduces body
  Effect on nocturnal ingestion: food intake: Reduces food intake

## O=C(CN1CCC(N2C(=O)OCc3ccccc32)CC1)Nc1ccc2c(c1)CCCC2=O [Example 6, 1-{1-[N-(1-oxo-1,2,3,4-tetrahydronaphthalen-6-yl)aminocarbonylmethyl]-4-(piperidinyl)}-1,4-dihydro-2H-3,1-benzoxazin-2-one hydrochloride]
Neuropeptide Y5
  Ki: 18.4 nM
Neuropeptide Y2
  Ki: > 1000 nM

## CCn1c2ccccc2c2cc(NC(=O)CN3CCC(N4C(=O)OCc5ccccc54)CC3)ccc21 [Example 18, 1-{1-[N-(9-ethyl-9H-carbazol-3-yl)aminocarbonylmethyl]-4-(piperidinyl)}-1,4-dihydro-2H-3,1-benzoxazin-2-one hydrochloride]
Male Wistar rats; 40 mg/kg
  Effect on nocturnal ingestion: body weight of the animals: reduces body
  Effect on nocturnal ingestion: food intake: Reduces food intake

## O=C(CN1CCC(N2C(=O)OCc3ccccc32)CC1)Nc1ccc2c(c1)-c1ccccc1C2=O [Example 3, 1-{1-[N-(9-oxo-9H-fluoren-3-yl)aminocarbonylmethyl]-4-(piperidinyl)}-1,4-dihydro-2H-3,1-benzoxazin-2-one hydrochloride]
Neuropeptide Y5
  Ki: 6.4 nM

## Cc1ccc2c(c1)COC(=O)N2C1CCN(CC(=O)Nc2ccc3c(c2)-c2ccccc2C3=O)CC1 (as salt: HCl) [Example 20, 1-{1-[N-(9-oxo-9H-fluoren-3-yl)aminocarbonylmethyl]-4-(piperidinyl)}-6-methyl-1,4-dihydro-2 H-3,1-benzoxazin-2-one hydrochloride]
other
  melting point: 250 to 252 °C
